# In article PMC7544826 (Communications Biology, 2020):
# Entries after “also recorded” stand apart in the source; their conditions may differ.
# Assays:
# [1] = molecular target: T1, Notum (Homo sapiens, UniProt Q6P988, C330S); assay: SPR equilibrium binding to biotinylated Notum on streptavidin chip; parameters: The human Notum enzyme core comprising amino acids S81–T451 with a C330S mutation; made in house; dialyzed conditioned medium used without purification; conditions: for SPR Response: Fig 2b
# T1 sequence (Q6P988 81-451 C330S): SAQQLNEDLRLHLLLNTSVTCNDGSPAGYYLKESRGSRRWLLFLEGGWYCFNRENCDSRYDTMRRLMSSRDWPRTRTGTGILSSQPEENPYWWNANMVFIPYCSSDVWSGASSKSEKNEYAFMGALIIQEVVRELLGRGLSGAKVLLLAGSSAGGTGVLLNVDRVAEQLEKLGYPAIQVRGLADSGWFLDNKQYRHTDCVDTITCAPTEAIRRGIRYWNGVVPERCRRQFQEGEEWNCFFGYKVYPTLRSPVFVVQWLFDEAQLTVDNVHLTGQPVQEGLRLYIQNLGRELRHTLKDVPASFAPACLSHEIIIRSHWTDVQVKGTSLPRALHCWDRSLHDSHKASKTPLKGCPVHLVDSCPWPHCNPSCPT
# Experimental: The human Notum core sequence was cloned in a pHL-Avi3 vector[49] and co-transfected with the pDisplay_BirA-ER plasmid[50] into HEK293T cells with the media supplemented with 20 µM biotin. This procedure allows in vivo biotinylation to occur, and the dialyzed conditioned medium was directly used for SA sensor chip immobilization without protein purification. […] Approximately 2500 resonance units (RU) of the biotinylated Notum was coupled onto the chip. […] The response was plotted versus the concentration of the analytes and fitted by nonlinear regression to a one-site saturation binding model (GraphPad Prism 8).
# [2] = molecular target: T1, Notum; assay: Notum activity assay with OPTS as substrate; type: biochemical; parameters: The human Notum enzyme core comprising amino acids S81–T451 with a C330S mutation; made in house; dialyzed conditioned medium used without purification; conditions: result in words
# Experimental: OPTS is a common lipase substrate with an octanoyl lipid linked to a fluorescent moiety. It is not a natural Notum substrate; however, it can be used to quantify the enzymatic activity of purified Notum protein[23],[25],[28]. […] The fluorescent lipase substrate OPTS was dissolved in water at a concentration of 20 µM. […] The inhibition curves were fitted with a one-site model with GraphPad Prism 8 software.
# [3] = molecular target: T1, Notum; assay: Thermal shift assay (SYPRO Orange) of Notum; conditions: compound 500 µM; for Thermoflour melting curve fluorescence of Notum: Fig 2c
# Experimental: Reference wells, i.e. solutions without compounds were used to compare the melting temperature (Tm). The experiments were performed in triplicate.
smiles,measurement,setting,value
"Cn1c(=O)c2[nH]cnc2n(C)c1=O [theophylline, 1,3-dimethylxanthine]",SPR Response,[1]; theophylline conc. 8.138e-6 (unit not given),6
same,SPR Response,[1]; theophylline conc. 1.628e-5 (unit not given),5.14
same,SPR Response,[1]; theophylline conc. 3.255e-5 (unit not given),5.26
same,SPR Response,[1]; theophylline conc. 6.51e-5 (unit not given),4.57
same,SPR Response,[1]; theophylline conc. 0.0001302 (unit not given),4.5
same,SPR Response,[1]; theophylline conc. 0.0002604 (unit not given),4.84
same,SPR Response,[1]; theophylline conc. 0.0005208 (unit not given),5.18
same,SPR Response,[1]; theophylline conc. 0.001042 (unit not given),6.64
same,SPR Response,[1]; theophylline conc. 0.002083 (unit not given),9.15
same,SPR Response,[1]; theophylline conc. 0.004167 (unit not given),13.17
same,SPR Response,[1]; theophylline conc. 0.008333 (unit not given),19.59
same,SPR Response,[1]; theophylline conc. 0.01667 (unit not given),29.6
same,Binding to Notum (SPR response),[1]; result in words,weak binding; also recorded: very weak binding
same,Notum inhibitory effect in OPTS enzyme assay,[2],not sufficient to inhibit Notum enzyme activity; also recorded: could not detect obvious Notum inhibitory effects
same,Thermoflour melting curve fluorescence of Notum,[3]; Temperature 24.5,897.128
same,Thermoflour melting curve fluorescence of Notum,[3]; Temperature 25.5,765.384
same,Thermoflour melting curve fluorescence of Notum,[3]; Temperature 26.5,637.209
same,Thermoflour melting curve fluorescence of Notum,[3]; Temperature 27.5,518.408
same,Thermoflour melting curve fluorescence of Notum,[3]; Temperature 28.5,414.177
same,Thermoflour melting curve fluorescence of Notum,[3]; Temperature 29.5,331.765
same,Thermoflour melting curve fluorescence of Notum,[3]; Temperature 30.5,250.774
same,Thermoflour melting curve fluorescence of Notum,[3]; Temperature 31.5,158.442
same,Thermoflour melting curve fluorescence of Notum,[3]; Temperature 32.5,68.441
same,Thermoflour melting curve fluorescence of Notum,[3]; Temperature 33.5,-19.5239
same,Thermoflour melting curve fluorescence of Notum,[3]; Temperature 34.5,-111.255
same,Thermoflour melting curve fluorescence of Notum,[3]; Temperature 35.5,-209.389
same,Thermoflour melting curve fluorescence of Notum,[3]; Temperature 36.5,-312.731
same,Thermoflour melting curve fluorescence of Notum,[3]; Temperature 37.5,-413.402
same,Thermoflour melting curve fluorescence of Notum,[3]; Temperature 38.5,-500.183
same,Thermoflour melting curve fluorescence of Notum,[3]; Temperature 39.5,-562.853
same,Thermoflour melting curve fluorescence of Notum,[3]; Temperature 40.5,-610.744
same,Thermoflour melting curve fluorescence of Notum,[3]; Temperature 41.5,-645.08
same,Thermoflour melting curve fluorescence of Notum,[3]; Temperature 42.5,-650.416
same,Thermoflour melting curve fluorescence of Notum,[3]; Temperature 43.5,-632.566
same,Thermoflour melting curve fluorescence of Notum,[3]; Temperature 44.5,-596.655
same,Thermoflour melting curve fluorescence of Notum,[3]; Temperature 45.5,-543.168
same,Thermoflour melting curve fluorescence of Notum,[3]; Temperature 46.5,-459.896
same,Thermoflour melting curve fluorescence of Notum,[3]; Temperature 47.5,-343.992
same,Thermoflour melting curve fluorescence of Notum,[3]; Temperature 48.5,-208.285
same,Thermoflour melting curve fluorescence of Notum,[3]; Temperature 49.5,-58.8655
same,Thermoflour melting curve fluorescence of Notum,[3]; Temperature 50.5,106.458
same,Thermoflour melting curve fluorescence of Notum,[3]; Temperature 51.5,280.009
same,Thermoflour melting curve fluorescence of Notum,[3]; Temperature 52.5,465.116
same,Thermoflour melting curve fluorescence of Notum,[3]; Temperature 53.5,688.929
same,Thermoflour melting curve fluorescence of Notum,[3]; Temperature 54.5,944.753
same,Thermoflour melting curve fluorescence of Notum,[3]; Temperature 55.5,1249.14
same,Thermoflour melting curve fluorescence of Notum,[3]; Temperature 56.5,1627.12
same,Thermoflour melting curve fluorescence of Notum,[3]; Temperature 57.5,2089.03
same,Thermoflour melting curve fluorescence of Notum,[3]; Temperature 58.5,2740.86
same,Thermoflour melting curve fluorescence of Notum,[3]; Temperature 59.5,3654.17
same,Thermoflour melting curve fluorescence of Notum,[3]; Temperature 60.5,4930.23
same,Thermoflour melting curve fluorescence of Notum,[3]; Temperature 61.5,6643.29
same,Thermoflour melting curve fluorescence of Notum,[3]; Temperature 62.5,8772.9
same,Thermoflour melting curve fluorescence of Notum,[3]; Temperature 63.5,11088.9
same,Thermoflour melting curve fluorescence of Notum,[3]; Temperature 64.5,13331.1
same,Thermoflour melting curve fluorescence of Notum,[3]; Temperature 65.5,15330
same,Thermoflour melting curve fluorescence of Notum,[3]; Temperature 66.5,16941.4
same,Thermoflour melting curve fluorescence of Notum,[3]; Temperature 67.5,18219.9
same,Thermoflour melting curve fluorescence of Notum,[3]; Temperature 68.5,19263.9
same,Thermoflour melting curve fluorescence of Notum,[3]; Temperature 69.5,20098.6
same,Thermoflour melting curve fluorescence of Notum,[3]; Temperature 70.5,20739.3
same,Thermoflour melting curve fluorescence of Notum,[3]; Temperature 71.5,21242.8
same,Thermoflour melting curve fluorescence of Notum,[3]; Temperature 72.5,21635.7
same,Thermoflour melting curve fluorescence of Notum,[3]; Temperature 73.5,21967.5
same,Thermoflour melting curve fluorescence of Notum,[3]; Temperature 74.5,22276.2
same,Thermoflour melting curve fluorescence of Notum,[3]; Temperature 75.5,22539.4
same,Thermoflour melting curve fluorescence of Notum,[3]; Temperature 76.5,22758.8
same,Thermoflour melting curve fluorescence of Notum,[3]; Temperature 77.5,22973.7
same,Thermoflour melting curve fluorescence of Notum,[3]; Temperature 78.5,23167.2
same,Thermoflour melting curve fluorescence of Notum,[3]; Temperature 79.5,23367.9
same,Thermoflour melting curve fluorescence of Notum,[3]; Temperature 80.5,23544.1
same,Thermoflour melting curve fluorescence of Notum,[3]; Temperature 81.5,23667.9
same,Thermoflour melting curve fluorescence of Notum,[3]; Temperature 82.5,23791
same,Thermoflour melting curve fluorescence of Notum,[3]; Temperature 83.5,23926.1
same,Thermoflour melting curve fluorescence of Notum,[3]; Temperature 84.5,24091.4
same,Thermoflour melting curve fluorescence of Notum,[3]; Temperature 85.5,24243.5
same,Thermoflour melting curve fluorescence of Notum,[3]; Temperature 86.5,24338.2
same,Thermoflour melting curve fluorescence of Notum,[3]; Temperature 87.5,24414.9
same,Thermoflour melting curve fluorescence of Notum,[3]; Temperature 88.5,24481.1
same,Thermoflour melting curve fluorescence of Notum,[3]; Temperature 89.5,24523
same,Thermoflour melting curve fluorescence of Notum,[3]; Temperature 90.5,24559.4
same,Thermoflour melting curve fluorescence of Notum,[3]; Temperature 91.5,24580.6
same,Thermoflour melting curve fluorescence of Notum,[3]; Temperature 92.5,24587.9
same,Thermoflour melting curve fluorescence of Notum,[3]; Temperature 93.5,24608.3
same,Thermoflour melting curve fluorescence of Notum,[3]; Temperature 94.5,24615
same,Thermoflour melting curve fluorescence of Notum,[3]; Temperature 95.5,24596.6
same,Thermoflour melting curve fluorescence of Notum,[3]; Temperature 96.5,24576.1
same,Thermoflour melting curve fluorescence of Notum,[3]; Temperature 97.5,24555
same,Effect on Tm of Notum,[3],very weak binding to Notum
same,∆Tm of Notum,[3]; versus Notum without compounds,about 1 °C
same,Melting temperature (Tm) of Notum,[3]; Notum without compounds Tm 63.6 °C,64.5 °C
